≈ marks a conversion by molar mass, not a printed value.

Ki and solubility data for 16 compounds are collected here from ChEMBL document CHEMBL1123048 (J Med Chem, 1985).

Series [1] has as its target T1, Adenosine receptor A1 (Rattus norvegicus, UniProt P25099).
T1 sequence (P25099 whole entry): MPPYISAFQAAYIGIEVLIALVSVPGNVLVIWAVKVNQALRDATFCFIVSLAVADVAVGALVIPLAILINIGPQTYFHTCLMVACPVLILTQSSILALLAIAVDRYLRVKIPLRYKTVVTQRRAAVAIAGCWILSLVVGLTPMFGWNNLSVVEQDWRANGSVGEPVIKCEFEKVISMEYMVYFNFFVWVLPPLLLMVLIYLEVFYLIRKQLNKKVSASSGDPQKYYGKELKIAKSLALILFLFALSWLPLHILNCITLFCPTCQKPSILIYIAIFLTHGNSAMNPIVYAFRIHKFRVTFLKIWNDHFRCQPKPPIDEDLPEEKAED
Description: Binding affinity towards adenosine A1 receptor in rat cerebral cortical membranes by [3H]cyclohexyladenosine displacement.

Series [2] concerns the target T1, Adenosine receptor A1. The series can be described thus: Binding affinity towards adenosine A1 receptor in rat cerebral cortical membranes with 1 nM [3H]cyclohexyladenosine. It counts as cell membranes.
Series [3] is described as follows: Solubility in 0.1 M sodium phosphate, and at pH 7.2. It counts as physicochemical. Conditions: 0.1 M sodium phosphate buffer.
In series [4] the target is Adenosine A2 receptor (Cavia porcellus).
Series [5] shares this target. The series can be described thus: Binding affinity against A2 adenosine receptor in [3H]adenine-labeled guinea pig cerebral cortical slices.

In the case of `CCCn1c(=O)c2nc(-c3ccc(OCC(=O)NCCNC(C)=O)cc3)[nH]c2n(CCC)c1=O`, the affinity on Adenosine receptor A1 [1] corresponds to a Ki of 24 nM.

`CCCn1c(=O)c2nc(-c3ccc(OCC(=O)N(C)C)cc3)[nH]c2n(CCC)c1=O` showed a Ki at Adenosine receptor A1 [1] of 32 nM.

The compound `CCCn1c(=O)c2[nH]c(-c3ccc(OCC(N)=O)cc3)nc2n(CCC)c1=O` returned a Ki at Adenosine receptor A1 [2] of 6 nM. In addition, in series [3], the solubility was 26 µM (≈ 10 µg/mL).

`CCCn1c(=O)c2nc(-c3ccc(OCC(=O)ON4C(=O)CCC4=O)cc3)[nH]c2n(CCC)c1=O` gave a Ki in series [4] of 40 nM.

For the compound `CCCn1c(=O)c2nc(-c3ccc(O)cc3)[nH]c2n(CCC)c1=O`, the solubility in series [3] came to 3.2 µM (≈ 1.05 µg/mL).

On to `CCCn1c(=O)c2nc(-c3ccc(OCC(=O)OCC)cc3)[nH]c2n(CCC)c1=O`, for which the Ki in series [4] is reported as 30 nM.

On to `CCCn1c(=O)c2nc(-c3ccc(OCC(=O)NCCNC(=O)CCCCC4SCC5NC(=O)NC54)cc3)[nH]c2n(CCC)c1=O` (stereo not drawn), for which the Ki at Adenosine receptor A1 [1] is 54 nM; in series [5], 180 nM.

Take `Cn1c(=O)c2nc(-c3ccc(OCC(=O)O)cc3)[nH]c2n(C)c1=O`: the Ki at Adenosine receptor A1 [1] stood at 500 nM; in series [4], 430 nM.

`CCCn1c(=O)c2nc(-c3ccc(OCC(=O)NN)cc3)[nH]c2n(CCC)c1=O` registered a Ki on Adenosine receptor A1 [1] of 59 nM.

Regarding `CCCn1c(=O)c2nc(-c3ccc(OCC(=O)N(C(=O)NC4CCCCC4)C4CCCCC4)cc3)[nH]c2n(CCC)c1=O`, affinity on Adenosine receptor A1 [1] was put at a Ki of 96 nM.

With `CC(=O)O.CCCn1c(=O)c2nc(-c3ccc(OCC(=O)NCCN(CC)Cc4ccc(O)cc4)cc3)[nH]c2n(CCC)c1=O`, the Ki was determined as 2.2 nM on Adenosine receptor A1 [1] and 320 nM in series [4].

As for `CCCn1c(=O)c2nc(-c3ccc(OCC(=O)NCCCCCCCCN)cc3)[nH]c2n(CCC)c1=O`, the Ki amounted to 5 nM on Adenosine receptor A1 [1] and 470 nM in series [4].

`CCCn1c(=O)c2nc(-c3ccc(OCC(=O)Nc4ccc(C)cc4)cc3)[nH]c2n(CCC)c1=O`: the Ki amounted to 36 nM on Adenosine receptor A1 [1] and 750 nM in series [4].

At Adenosine receptor A1 [1], `Cc1ccc(NC(=O)COc2ccc(-c3nc4c(=O)n(C)c(=O)n(C)c4[nH]3)cc2)cc1` gave a Ki of 26 nM. This lies in the double-digit nanomolar range.

For the compound `CCCn1c(=O)c2nc(-c3ccc(OCC(=O)Nc4ccc(O)cc4)cc3)[nH]c2n(CCC)c1=O`, the Ki is 4.1 nM on Adenosine receptor A1 [1] and 62 nM in series [4].

For `CCCn1c(=O)c2[nH]c(-c3ccc(OCC(=O)NCCN)cc3)nc2n(CCC)c1=O` [XANTHINE AMINE CONGENER], in series [3], the solubility came out at 90 µM (≈ 38.6 µg/mL).

Broadly, the Ki is the equilibrium dissociation constant of an inhibitor or competing ligand from its target. Read a high Ki as lower affinity. What is called solubility is the dissolved amount per volume that the medium holds. Low readings indicate little dissolved substance, high ones much dissolved substance.
